Converted amounts (≈) assume the structure as drawn. Read-outs that look alike come from different tables or passages of the source. Marks after values point to notes of the source that are not given here.
Key:
HSV-1 = experiment: Antiviral disc assay, HSV-1 in CV-1 cells; assay type: cell-based, herpes simplex type 1
[1] = system: P388 mouse leukemia cells; experiment: P388 mouse leukemia cell assay; assay type: cell-based; settings: 48 hours
Description: P388 mouse leukemia cells are grown in Dulbecco's minimum essential medium with Earle's salts (MEM) with 10% horse serum, 4 mM glutamine, and 20 ug/ml gentamicin (Biologos, Inc.). Cells are incubated in 10% CO2 and subcultured 2 times per week. 1. Add compound to each well of a 24-well plate or tube and allow solvent to evaporate to dryness. 2. Add 2 ml (1.2×10^5) cells to each well or tube and mix. 3. Incubate in 10% CO2 at 37° for 48 hours. 4. Read plates with an inverted microscope, scoring activity from 1+ to 4+ as follows: ND (not detectable),>90%; 1+, 75-90%; 2+, 50-74%; 3+, 25-49%; 4+, <25% of control growth. Cell counts are performed on each tube and results are reported as percent of control. Positive control--Vinblastine or Vincristine in aqueous solution.

VSV = assay type: cell-based, vesicular stomatitis virus
human tumor cell lines = experiment: Human tumor cell line assay (cell lines together); assay type: cell-based; settings: 120 h, in concentrations of at least 10 μg/ml, read-out: concentrations with good activity against human tumor cell lines
Description: (§1) HCT-8 human colon tumor cells are grown in RPM1 1640 medium (GIBCO). A-549 human lung carcinoma cells are cultured in Dulbecco medium (Biologos, Inc.). MCF-7, MDA-MB 231 and T47D human breast carcinoma cells are grown in Eagles MEM medium. All media are supplemented with 10% fetal bovine serum and contain 50 μg/ml gentamicin. All human tumor cell lines are incubated in 5% CO2 at 37° and subcultured once a week. The seeding levels are 350,000 MCF-7 cells, 60,000 HCT-8 cells and 300,000 A-549 cells per T25 flask.
(§2) 2. Incubate in 5% CO2 for 48 hours.
(§3) 3. Add compound (50 μg)to each well and incubate for an additional 120 hours.
(§4) 4. Discard medium and stain with methylene blue (HCT-8) or crystal violet (A549 and MCF-7) for 30 minutes.
(§5) 5. Compare cell density of drug-treated well with that of the control (no drug added) as follows: ND (not detectable), >90%; 1+, 75-90%; 2+, 50-74%; 3+, 25-49%, 4+, <25% of control growth.

CV-1 cells = experiment: Cytotoxicity in the antiviral disc assay
[2] = system: MDA-MB 231 human breast carcinoma cells; experiment: Human tumor cell line assay, MDAMB mammary; assay type: cell-based; settings: 120 hours, read-out: Antitumor activity, MDAMB
Description: as §1, §2, §3, §4, §5

[3] = system: A-549 human lung carcinoma cells; experiment: Human tumor cell line assay, A-549 lung; assay type: cell-based; settings: 120 hours, read-out: Antitumor activity, A-549
Description: as §1, §2, §3, §4, §5

[4] = system: HCT-8 human colon tumor cells; experiment: Human tumor cell line assay, HCT-8 colon; assay type: cell-based; settings: 120 hours, read-out: Antitumor activity, HCT-8
Description: as §1, §2, §3, §4, §5

**Q.** For `C[C@]12CC(=O)[C@@H](O)[C@](C)(CO)[C@@H]1CC[C@@]1(C)c3cocc3CC[C@H]21` [Composition 2, spongiadiol], which “HSV-1 Activity” value (HSV-1; 0.5 μg/disk) is on record?
**A.** +++

**Q.** What about the IC50 [1] of the same molecule?
**A.** 0.5 mg/L (≈ 1.5 µM)

**Q.** What about the “VSV Activity” value (VSV; 0.5 μg/disk) of the same molecule?
**A.** ++

**Q.** And the “VSV Activity” value (VSV; 1 μg/disk)?
**A.** +++

**Q.** How did the minimal effective concentration (human tumor cell lines) turn out when `C[C@]12C[C@@H](O)C(=O)[C@](C)(CO)[C@@H]1CC[C@@]1(C)c3cocc3CC[C@H]21` [Composition 1, isospongiadiol] was run?
**A.** ≥ 10 µg/mL

**Q.** And the Cytotoxicity (CV-1 cells; 2 μg/disk)?
**A.** 0*

**Q.** And the Cytotoxicity (CV-1 cells; 20 μg/disk)?
**A.** 0*

**Q.** And the “HSV-1 Activity” value (HSV-1; 2 μg/disk)?
**A.** ++

**Q.** What about the “HSV-1 Activity” value (HSV-1; 20 μg/disk) of the same molecule?
**A.** +++

**Q.** And the activity at 1 µg/mL ([2]; dose 1 μg/ml)?
**A.** > 90%

**Q.** What about the activity at 10 µg/mL ([2]; dose 10 μg/ml) of the same molecule?
**A.** 25 to 49%

**Q.** And the activity at 50 µg/mL ([2]; dose 50 μg/ml)?
**A.** < 25%

**Q.** What about the activity at 1 µg/mL ([3]; A549, dose 1 μg/ml) of the same molecule?
**A.** > 90%

**Q.** What about the activity at 10 µg/mL ([3]; A549, dose 10 μg/ml) of the same molecule?
**A.** 25 to 49%

**Q.** And the activity at 50 µg/mL ([3]; A549, dose 50 μg/ml)?
**A.** < 25%

**Q.** And the IC50 [1]?
**A.** 5 mg/L (≈ 15 µM)

**Q.** What about the “VSV Activity” value (VSV; 20 μg/disk) of the same molecule?
**A.** +

**Q.** What about the activity at 1 µg/mL ([4]; dose 1 μg/ml) of the same molecule?
**A.** > 90%

**Q.** What about the activity at 10 µg/mL ([4]; dose 10 μg/ml) of the same molecule?
**A.** 25 to 49%

**Q.** What about the activity at 50 µg/mL ([4]; dose 50 μg/ml) of the same molecule?
**A.** < 25%

**Q.** Which “HSV-1 Activity” value (HSV-1; 6.25 μg/disk) does the source give for `C[C@]12CC(=O)[C@H](O)[C@](C)(CO)[C@@H]1CC[C@@]1(C)c3cocc3CC[C@H]21` [Composition 3, epispongiadiol] here?
**A.** +

**Q.** And the “HSV-1 Activity” value (HSV-1; 12.5 μg/disk)?
**A.** ++

**Q.** And the IC50 [1]?
**A.** 8 mg/L (≈ 24.1 µM)

**Q.** What about the “VSV Activity” value (VSV; 20 μg/disk) of the same molecule?
**A.** +
